One molecule from ChEMBL document CHEMBL5154943, “Crystallography-Guided Optimizations of the Keap1-Nrf2 Inhibitors on the Solvent Exposed Region: From Symmetric to Asymmetric Naphthalenesulfonamides” (J Med Chem, 2022) can be followed below.

≈ marks a conversion by molar mass, not a printed value.

Series [1] can be described thus: Cmax in Sprague-Dawley rat at 20 mg/kg, IG measured upto 24 hrs by LC-MS analysis. The class given is ADME, organism-based. The arrangement: dose 20 mg/kg, time < 24 hrs, route ig. Particulars: in vivo, po.
A further series concerns the target Keap1/Nrf2 (Homo sapiens, UniProt Q14145). As to the kind of experiment: Inhibition of recombinant N-terminal His6-tagged human Keap1-Nrf2 (322 to 609 residues) (unknown origin) protein-protein interaction expressed in Escherichia coli (DE3) incubated for 60 mins by fluorescence anisotropy assay. A general note: Fluorescence polarisation rises when a labelled molecule tumbles more slowly, as on binding a larger partner.

Series [2] can be described thus: Tmax in Sprague-Dawley rat at 5 mg/kg, iv measured upto 24 hrs by LC-MS analysis. Particulars: in vivo. The class given is ADME, organism-based.
Series [3] in a line: AUC(0 to infinity) in Sprague-Dawley rat at 5 mg/kg, iv measured upto 24 hrs by LC-MS analysis. The series is classed as ADME, organism-based. Further details: dose 5 mg/kg, time < 24 hrs, route iv. The note with it: in vivo.
The nature of series [4]: AUC (0 to 24 hrs) in Sprague-Dawley rat at 20 mg/kg, IG measured upto 24 hrs by LC-MS analysis. The note with it: in vivo, po. The class given is ADME, organism-based. The arrangement: time < 24 hrs, dose 20 mg/kg, route ig.
The nature of series [5]: AUC (0 to 24 hrs) in Sprague-Dawley rat at 5 mg/kg, iv measured upto 24 hrs by LC-MS analysis. The class given is ADME, organism-based. The arrangement: time < 24 hrs, dose 5 mg/kg, route iv. Particulars: in vivo.
The nature of series [6]: Tmax in Sprague-Dawley rat at 20 mg/kg, IG measured for 24 hrs by LC-MS analysis. The class given is ADME, organism-based. The note with it: in vivo, po.
Series [7] is described as follows: Aqueous solubility of the compound in PBS at pH 2 after 24 hrs by HPLC-UV analysis. The series is classed as physicochemical.
Series [8] can be described thus: Antiinflammatory activity against LPS-induced mouse peritoneal macrophage assessed as inhibition of TNF alpha level after 4 hrs by ELISA method. The class given is functional, cell-based. (An ELISA detects its analyte on a solid surface through an enzyme-linked reagent.)
The nature of series [9]: Aqueous solubility of the compound in PBS at pH 7.4 after 24 hrs by HPLC-UV analysis. The class given is physicochemical.
A short description of series [10]: MRT(0 to 24 hrs) in Sprague-Dawley rat at 5 mg/kg, iv measured upto 24 hrs by LC-MS analysis. The series is classed as ADME, organism-based. Particulars: in vivo.
The nature of series [11]: AUC(0 to infinity) in Sprague-Dawley rat at 20 mg/kg, IG measured upto 24 hrs by LC-MS analysis. Particulars: in vivo, po. Further details: dose 20 mg/kg, time < 24 hrs, route ig. The class given is ADME, organism-based.
Series [12] can be described thus: Cmax in Sprague-Dawley rat at 5 mg/kg, iv measured upto 24 hrs by LC-MS analysis. The class given is ADME, organism-based. Further details: dose 5 mg/kg, time < 24 hrs, route iv. Particulars: in vivo.
Series [13] in a line: Aqueous solubility of the compound in PBS at pH 7 after 24 hrs by HPLC-UV analysis. The class given is physicochemical.
Series [14] is described as follows: MRT(0 to 24 hrs) in Sprague-Dawley rat at 20 mg/kg, IG measured upto 24 hrs by LC-MS analysis. The series is classed as ADME, organism-based. Particulars: in vivo, po.
Series [15] can be described thus: Half life in Sprague-Dawley rat at 20 mg/kg, IG measured upto 24 hrs by LC-MS analysis. The class given is ADME, organism-based. Particulars: in vivo, po.
Series [16] in a line: Antiinflammatory activity against LPS-induced mouse peritoneal macrophage assessed as suppression of NO level pretreated with LPS followed by compound addition and measured after 24 hrs by Griess reagent based assay. The class given is functional, cell-based. (Griess reagent forms a coloured azo dye with nitrite.)
Series [17] in a line: MRT(0 to infinity) in Sprague-Dawley rat at 5 mg/kg, iv measured upto 24 hrs by LC-MS analysis. The class given is ADME, organism-based. The note with it: in vivo.
A short description of series [18]: Oral bioavailability in Sprague-Dawley rat at 20 mg/kg measured upto 24 hrs by LC-MS analysis. The series is classed as ADME, organism-based. The note with it: in vivo.
The subject of the next series is Peritoneal macrophage. Nature of the series: Cytotoxicity against mouse peritoneal macrophages assessed as reduction in cell viability measured after 24 hrs by Cell Titer-Blue assay. The series is classed as functional.
Series [19] is described as follows: Half life in Sprague-Dawley rat at 5 mg/kg, iv measured upto 24 hrs by LC-MS analysis. Particulars: in vivo. The class given is ADME, organism-based.
Series [20] is described as follows: MRT (0 to infinity) in Sprague-Dawley rat at 20 mg/kg, IG measured upto 24 hrs by LC-MS analysis. Particulars: in vivo, po. The series is classed as ADME, organism-based.

Keap1/Nrf2, sequence (Q16236 whole entry, the tested form may be a part): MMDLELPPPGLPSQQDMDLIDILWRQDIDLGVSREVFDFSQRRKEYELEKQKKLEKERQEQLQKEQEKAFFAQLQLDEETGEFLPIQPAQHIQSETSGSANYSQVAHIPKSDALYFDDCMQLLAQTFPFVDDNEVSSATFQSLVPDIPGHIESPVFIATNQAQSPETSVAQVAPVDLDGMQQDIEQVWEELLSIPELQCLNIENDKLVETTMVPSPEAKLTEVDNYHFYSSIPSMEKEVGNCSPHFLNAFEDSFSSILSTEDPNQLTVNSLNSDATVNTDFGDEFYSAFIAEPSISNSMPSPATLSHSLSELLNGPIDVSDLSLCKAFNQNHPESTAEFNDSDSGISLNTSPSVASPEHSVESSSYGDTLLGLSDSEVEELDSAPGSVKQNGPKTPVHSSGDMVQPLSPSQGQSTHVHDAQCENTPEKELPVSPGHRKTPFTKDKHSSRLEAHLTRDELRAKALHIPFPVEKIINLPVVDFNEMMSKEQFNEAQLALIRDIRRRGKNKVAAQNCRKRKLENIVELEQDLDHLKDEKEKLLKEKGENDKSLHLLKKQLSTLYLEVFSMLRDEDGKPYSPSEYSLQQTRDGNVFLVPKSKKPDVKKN
Keap1/Nrf2, sequence (Q14145 whole entry, the tested form may be a part): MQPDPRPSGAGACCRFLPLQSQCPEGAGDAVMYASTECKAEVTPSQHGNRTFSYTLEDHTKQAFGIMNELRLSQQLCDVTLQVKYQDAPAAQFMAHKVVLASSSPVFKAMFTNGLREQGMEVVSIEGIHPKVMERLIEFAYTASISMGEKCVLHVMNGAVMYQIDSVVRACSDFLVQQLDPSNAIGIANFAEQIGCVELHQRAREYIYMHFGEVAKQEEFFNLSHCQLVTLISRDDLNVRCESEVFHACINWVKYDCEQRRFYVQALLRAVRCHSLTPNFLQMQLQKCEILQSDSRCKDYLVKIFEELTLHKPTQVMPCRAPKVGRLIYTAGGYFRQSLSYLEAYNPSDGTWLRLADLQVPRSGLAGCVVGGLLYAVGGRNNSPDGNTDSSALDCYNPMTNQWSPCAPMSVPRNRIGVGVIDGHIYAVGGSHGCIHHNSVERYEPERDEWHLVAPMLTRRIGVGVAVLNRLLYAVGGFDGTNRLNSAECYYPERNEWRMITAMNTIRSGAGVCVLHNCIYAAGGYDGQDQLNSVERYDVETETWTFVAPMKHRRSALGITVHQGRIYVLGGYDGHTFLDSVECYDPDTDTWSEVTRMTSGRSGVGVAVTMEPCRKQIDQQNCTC

For orientation: Cmax means the peak of the concentration-time curve. Usually Kd stands for a measure of binding affinity in units of concentration. One may read the Tmax as the time at which the peak concentration occurs. As a reminder, the AUC is concentration integrated over time. Low readings indicate less exposure, high ones more exposure. One may read the AUC(0-t) as the area under the concentration-time curve up to a stated or last time point. Usually solubility stands for the dissolved amount per volume that the medium holds. Lower therefore signals little dissolved substance. As a reminder, the EC50 is the midpoint of the concentration-response curve. Usually MRT last stands for a mean duration of stay, worked out from the concentration-time curve. For orientation: AUC(0-inf) means total exposure, with the tail of the curve extrapolated. A word on the half-life: it is the time in which the quantity being followed falls by half. The MRT inf is a mean duration of stay, worked out from the concentration-time curve. Broadly, the bioavailability is the share of a dose that reaches the circulation, judged against a reference dose that is usually intravenous. A high value points to much systemic uptake. By CC50 is commonly meant the concentration that lowers cell viability or growth by half. On to `CCN1CCN(CCC(=O)Nc2ccc(S(=O)(=O)N(CC(N)=O)c3ccc(N(CC(N)=O)S(=O)(=O)c4ccc(OC)cc4)c4ccccc34)cc2)CC1`, for which the Cmax was 708 ng/mL in [1] and 2630 ng/mL in series [12]. Moreover, the Kd at Keap1/Nrf2 stood at 210 nM. Further, the Tmax was found to be 0.72 h in series [2] and 1.38 h in series [6]. In series [3], this molecule registered an AUC of 4779.24 ng·h/mL. Further, the figures for the AUC(0-t) at 24 h in [4] and in [5] were 3060 ng·h/mL and 4560 ng·h/mL, respectively. The values for the solubility at 24 h in [7], in series [9] and in series [13] were 902 µg/mL (≈ 1180 µM), 49.3 µg/mL (≈ 64.4 µM) and 91.1 µg/mL (≈ 119 µM), respectively. The EC50 was 1140 nM in series [8] and 970 nM in series [16]. The MRT last at 24 h in series [10] was determined as 4.64 h; in [14], 6.71 h. In series [11], the AUC(0-inf) was found to be 3700 ng·h/mL. In series [15], this molecule showed a half-life of 10.9 h. For the same molecule, the MRT inf in series [17] was 5.94 h; in [20] it was 14 h. The bioavailability in [18] was found to be 19.9%. The CC50 with Peritoneal macrophage is over 100000 nM. This molecule registered a t1/2 in series [19] of 4.31 h.
